Assay results taken from patent US9006139B2, “Active compound combinations” (Bayer Intellectual Property GmbH, priority 2009, dated 2015).

What was measured:
Format in all cases: in vivo
Alternaria solani = assay: Alternaria test (tomatoes)/protective; details: Table E, test 2, 2.5 ppm a.i.; for pest or weed control at 2.5 ppm: Alternaria solani, 72 h, read-out: Efficacy in % found
Procedure: (§1) Solvent: 24.5 parts by weight of acetone
(§2) • 24.5 parts by weight of dimethylacetamide Emulsifier: 1 part by weight of alkylaryl polyglycol ether
To produce a suitable preparation of active compound, 1 part by weight of active compound is mixed with the stated amounts of solvent and emulsifier, and the concentrate is diluted with water to the desired concentration. To test for protective activity, young plants are sprayed with the preparation of active compound at the stated rate of application. After the spray coating has dried on, the plants are inoculated with an aqueous spore suspension of Alternaria solani. The plants are then placed in an incubation cabinet at approximately 20° C. and a relative atmospheric humidity of 100%. The test is evaluated 3 days after the inoculation. 0% means an efficacy which corresponds to that of the control while an efficacy of 100% means that no disease is observed.

Botrytis cinerea = assay: Botrytis test (beans)/protective; details: Botrytis cinerea, 48 h, Table F, test 3, read-out: Efficacy in % found
Procedure: as §1, §2
To produce a suitable preparation of active compound, 1 part by weight of active compound is mixed with the stated amounts of solvent and emulsifier, and the concentrate is diluted with water to the desired concentration. To test for protective activity, young plants are sprayed with the preparation of active compound. After the spray coating has dried on, 2 small pieces of agar covered with growth of Botrytis cinerea are placed on each leaf. The inoculated plants are placed in a darkened chamber at 20° C. and a relative atmospheric humidity of 100%. 2 days after the inoculation, the size of the lesions on the leaves is evaluated. 0% means an efficacy which corresponds to that of the control, while an efficacy of 100% means that no disease is observed.

Puccinia triticina = assay: Puccinia triticina-test (wheat)/preventive; details: Table M; 62.5 ppm a.i.
Procedure: (§3) Solvent: 49 parts by weight of n,n-dimethylacetamid
(§4) Emulsifier: 1 part by weight of alkylaryl polyglycol ether
To produce a suitable preparation of active compound, 1 part by weight of active compound or active compound combination is mixed with the stated amounts of solvent and emulsifier, and the concentrate is diluted with water to the desired concentration. To test for preventive activity, young plants are sprayed with the preparation of active compound or active compound combination at the stated rate of application. After the spray coating has been dried, the plants are sprayed with a spore suspension of Puccinia triticina. The plants remain for 48 hours in an incubation cabinet at approximately 20° C. and a relative atmospheric humidity of approximately 100%. The plants are placed in the greenhouse at a temperature of approximately 20° C. and a relative atmospheric humidity of approximately 80%. The test is evaluated 8 days after the inoculation. 0% means an efficacy which corresponds to that of the untreated control, while an efficacy of 100% means that no disease is observed.

[1] = system: Blumeria graminis fsp. tritici; assay: Blumeria test (wheat)/preventive; details: Table G; 62.5 ppm a.i.
Procedure: as §3, §4
To produce a suitable preparation of active compound, 1 part by weight of active compound or active compound combination is mixed with the stated amounts of solvent and emulsifier, and the concentrate is diluted with water to the desired concentration. To test for preventive activity, young plants are sprayed with the preparation of active compound or active compound combination at the stated rate of application. After the spray coating has been dried, the plants are dusted with spores of Blumeria graminis fsp. tritici. The plants are placed in the greenhouse at a temperature of approximately 18° C. and a relative atmospheric humidity of approximately 80% to promote the development of mildew pustules. The test is evaluated 7 days after the inoculation. 0% means an efficacy which corresponds to that of the untreated control, while an efficacy of 100% means that no disease is observed.

Fusarium graminearum = details: Table L; 62.5 ppm a.i.
Sphaerotheca fuliginea = assay: Sphaerotheca test (cucumbers)/protective; details: Table C, test 4; 5 ppm a.i.
Procedure: as §1, §2
To produce a suitable preparation of active compound, 1 part by weight of active compound is mixed with the stated amounts of solvent and emulsifier, and the concentrate is diluted with water to the desired concentration. To test for protect activity, young plants are sprayed with the preparation of active compound at the stated rate of application. After the spray coating has dried on, the plants are inoculated with an aqueous spore suspension of Sphaerotheca fuliginea. The plants are then placed in a greenhouse at approximately 23° C. and a relative atmospheric humidity of approximately 70%. The test is evaluated 7 days after the inoculation. 0% means an efficacy which corresponds to that of the control, while an efficacy of 100% means that no disease is observed.

Row | Structure (SMILES) | pest or weed control at 2.5 ppm (Alternaria solani) [%] | Efficacy in % found (Puccinia triticina) [%] | Efficacy in % found [1] [%] | other results
1 | CC(C)CC(C)c1sccc1NC(=O)c1cn(C)nc1C(F)(F)F (centres unmarked) [(2.20), penthiopyrad] | 50 | 70 | – | pest or weed control at 2.5 ppm (Botrytis cinerea; 2.5 ppm a.i.): 65%
2 | CNC(=O)/C(=N/OC)c1ccccc1Oc1ccccc1 [(3.10), metominostrobin] | 15 | – | 13 | pest or weed control at 50 ppm (Botrytis cinerea; 50 ppm a.i.): 55%
3 | CC1(C)CCC(Cc2ccc(Cl)cc2)C1(O)Cn1cncn1 (centres unmarked) [1.30, metconazole] | – | – | – | Efficacy in % found (Fusarium graminearum): 0%
4 | CCCC1COC(Cn2cncn2)(c2ccc(Cl)cc2Cl)O1 (centres unmarked) [(1.40), propiconazole] | – | – | 38 | –
5 | CO/C=C(/C(=O)OC)c1ccccc1COc1cccc(C(F)(F)F)n1 [(3.12), picoxystrobin] | – | 80 | – | Efficacy in % found (Sphaerotheca fuliginea): 62%; Efficacy in % found (Alternaria solani): 60%
